The target in the test is T1, Chk1 (Homo sapiens, UniProt O14757).
T1 construct: purchased Upstate Biotechnology
T1 sequence (O14757 1-476): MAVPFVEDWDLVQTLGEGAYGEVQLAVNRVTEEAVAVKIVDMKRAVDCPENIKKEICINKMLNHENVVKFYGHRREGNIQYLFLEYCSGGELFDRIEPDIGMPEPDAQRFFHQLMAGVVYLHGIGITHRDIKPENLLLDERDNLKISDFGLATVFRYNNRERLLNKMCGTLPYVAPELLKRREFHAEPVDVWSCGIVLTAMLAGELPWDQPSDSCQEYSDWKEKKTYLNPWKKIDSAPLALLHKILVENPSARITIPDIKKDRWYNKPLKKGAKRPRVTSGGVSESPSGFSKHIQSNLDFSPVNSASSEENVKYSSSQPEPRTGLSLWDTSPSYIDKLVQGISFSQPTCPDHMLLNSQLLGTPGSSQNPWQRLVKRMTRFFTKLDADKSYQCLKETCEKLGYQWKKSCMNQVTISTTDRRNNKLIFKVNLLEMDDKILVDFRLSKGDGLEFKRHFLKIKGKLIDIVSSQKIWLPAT
The experiment in a line: Chk1 kinase assay: incorporation of γ-33P ATP into immobilized myelin basic protein. Format: biochemical. Conditions: Table 11; Chk1 only; read-out: Chk1 IC50. The gist of the method:
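Radiometric filter-free format: Chk1 10 nM, 10 μM ATP; Chk2 20 nM, 30 μM ATP; γ-33P ATP tracer; immobilized MBP substrate; Hepes pH 7.6, 10 mM MgCl2, 1 mM DTT; 1 h RT; 1% DMSO. Scintillation counting of washed plates. IC50/Ki from curve fit.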
As to `CNNC(=O)c1nc(-c2cccc(CN[C@H]3CCc4ccccc43)c2)cnc1N` [Example 553, 3-amino-6-(3-{[(1S)-2,3-dihydro-1H-inden-1-ylamino]methyl}phenyl)-N′-methylpyrazine-2-carbohydrazide], the IC50 lay within 50 to 1000 nM.
The figure for `CN(C)C(=O)c1nc(-c2cccc(CN[C@H]3CCc4ccccc43)c2)cnc1N` [Example 554, 3-amino-6-(3-{[(1S)-2,3-dihydro-1H-inden-1-ylamino]methyl}phenyl)-N,N-dimethylpyrazine-2-carboxamide] is 50 to 1000 nM; for `Nc1ncc(-c2cccc(CN[C@H]3CCc4ccccc43)c2)nc1-c1nnc(Cc2ccccc2)[nH]1` [Example 555, 5-(3-{[(1S)-2,3-dihydro-1H-inden-1-ylamino]methyl}phenyl)-3-[5-(phenylmethyl)-4H-1,2,4-triazol-3-yl]pyrazin-2-amine] it is 50 to 1000 nM.
In the case of `CN(C)CCNC(=O)c1nc(-c2cccc(CN[C@H]3CCc4ccccc43)c2)cnc1N` [Example 556, 3-amino-6-(3-{[(1S)-2,3-dihydro-1H-inden-1-ylamino]methyl}phenyl)-N-[2-(dimethylamino)ethyl]pyrazine-2-carboxamide], the IC50 lay within 50 to 1000 nM.
`Nc1ncc(-c2cccc(CN[C@H]3CCc4ccccc43)c2)nc1-c1nc(-c2ccccc2)n[nH]1` [Example 557, 5-(3-{[(1S)-2,3-dihydro-1H-inden-1-ylamino]methyl}phenyl)-3-(3-phenyl-1H-1,2,4-triazol-5-yl)pyrazin-2-amine]: the concentration for half-maximal inhibition (IC50) is less than 50 nM.
Consider `Nc1ncc(-c2cccc(CN[C@H]3CCc4ccccc43)c2)nc1C(=O)NCCc1c[nH]cn1` [Example 558, 3-amino-6-(3-{[(1S)-2,3-dihydro-1H-inden-1-ylamino]methyl}phenyl)-N-[2-(1H-imidazol-4-yl)ethyl]pyrazine-2-carboxamide], for which the IC50 was less than 50 nM.
The figure for `CNCCNC(=O)c1nc(-c2cccc(CN[C@H]3CCc4ccccc43)c2)cnc1N` [Example 559, 3-amino-6-(3-{[(1S)-2,3-dihydro-1H-inden-1-ylamino]methyl}phenyl)-N-[2-(methylamino)ethyl]pyrazine-2-carboxamide] is less than 50 nM; for `Nc1ncc(-c2cccc(C(=O)NCc3ccccc3)c2)nc1C(=O)c1cccc(F)c1` [Example 560, 3-{5-amino-6-[(3-fluorophenyl)carbonyl]pyrazin-2-yl}-N-(phenylmethyl)benzamide] it is no less than 10000 nM.
The result for `Nc1ncc(-c2cccc(CN[C@H]3CCc4ccccc43)c2)nc1C(=O)NCCCO` [Example 561, 3-amino-6-(3-{[(1S)-2,3-dihydro-1H-inden-1-ylamino]methyl}phenyl)-N-(3-hydroxypropyl)pyrazine-2-carboxamide] reads 50 to 1000 nM; that for `CC(C)(C)OC(=O)N1CCC(NC(=O)c2nc(-c3cccc(C(=O)NCc4ccccc4)c3)cnc2N)CC1` [Example 562, 1,1-dimethylethyl 4-({[3-amino-6-(3-{[(phenylmethyl)amino]carbonyl}phenyl)pyrazin-2-yl]carbonyl}amino)piperidine-1-carboxylate], no less than 10000 nM; that for `CC(C)(C)OC(=O)N1CCC(CNC(=O)c2nc(-c3cccc(C(=O)NCc4ccccc4)c3)cnc2N)CC1` [Example 563, 1,1-dimethylethyl 4-[({[3-amino-6-(3-{[(phenylmethyl)amino]carbonyl}phenyl)pyrazin-2-yl]carbonyl}amino)methyl]piperidine-1-carboxylate], no less than 10000 nM.
The figure for `Nc1ncc(-c2cccc(C(=O)NCc3ccccc3)c2)nc1C(=O)NC1CCNCC1` [Example 564, 3-amino-6-(3-{[(phenylmethyl)amino]carbonyl}phenyl)-N-piperidin-4-ylpyrazine-2-carboxamide] is 50 to 1000 nM; for `Nc1ncc(-c2cccc(C(=O)NCc3ccccc3)c2)nc1C(=O)NCC1CCNCC1` [Example 565, 3-amino-6-(3-{[(phenylmethyl)amino]carbonyl}phenyl)-N-(piperidin-4-ylmethyl)pyrazine-2-carboxamide] it is 50 to 1000 nM.
Regarding `Nc1ncc(-c2cccc(C(=O)NCc3ccccc3)c2)nc1C(=O)N1CCOCC1` [Example 566, 3-[5-amino-6-(morpholin-4-ylcarbonyl)pyrazin-2-yl]-N-(phenylmethyl)benzamide], the IC50 is 1000 to 10000 nM.
The result for `CC(C)(C)OC(=O)N1CCC(NC(=O)c2nc(-c3cccc(C(=O)NCc4ccccc4)c3)cnc2N)C1` (stereo not shown) [Example 567, 1,1-dimethylethyl 3-({[3-amino-6-(3-{[(phenylmethyl)amino]carbonyl}phenyl)pyrazin-2-yl]carbonyl}amino)pyrrolidine-1-carboxylate] reads no less than 10000 nM.
The figure for `Nc1ncc(-c2cccc(C(=O)NCc3ccccc3)c2)nc1C(=O)NC1CCNC1` (stereo not shown) [Example 568, 3-amino-6-(3-{[(phenylmethyl)amino]carbonyl}phenyl)-N-pyrrolidin-3-ylpyrazine-2-carboxamide] is 50 to 1000 nM; for `Nc1ncc(-c2cccc(CO)c2)nc1-c1nnc(-c2ccco2)[nH]1` [Example 570, {3-[5-amino-6-(5-furan-2-yl-4H-1,2,4-triazol-3-yl)pyrazin-2-yl]phenyl}methanol] it is 50 to 1000 nM; for `COc1cccc(-c2nnc(-c3nc(-c4cccc(CO)c4)cnc3N)[nH]2)c1` [Example 571, [3-(5-amino-6-{5-[3-(methyloxy)phenyl]-4H-1,2,4-triazol-3-yl}pyrazin-2-yl)phenyl]methanol] it is no less than 10000 nM.
As for `Nc1ncc(-c2cccc(CO)c2)nc1C(=O)NNC(=O)Nc1ccccc1` [Example 572, 2-({3-amino-6-[3-(hydroxymethyl)phenyl]pyrazin-2-yl}carbonyl)-N-phenylhydrazinecarboxamide], the IC50 lay within 50 to 1000 nM.
The result for `CN1CCN(C(=O)c2nc(-c3cccc(C(=O)NCc4ccccc4)c3)cnc2N)CC1` [Example 573, 3-{5-amino-6-[(4-methylpiperazin-1-yl)carbonyl]pyrazin-2-yl}-N-(phenylmethyl)benzamide] reads no less than 10000 nM.
Turning to `Nc1ncc(-c2cccc(C(=O)NCc3ccccc3)c2)nc1C(=O)N1CCN(c2ccc(F)cc2)CC1` [Example 574, 3-(5-amino-6-{[4-(4-fluorophenyl)piperazin-1-yl]carbonyl}pyrazin-2-yl)-N-(phenylmethyl)benzamide], the IC50 is no less than 10000 nM.
The figure for `Nc1ncc(-c2cccc(C(=O)NCc3ccccc3)c2)nc1C(=O)N1CCN(Cc2ccccc2)CC1` [Example 575, 3-(5-amino-6-{[4-(phenylmethyl)piperazin-1-yl]carbonyl}pyrazin-2-yl)-N-(phenylmethyl)benzamide] is no less than 10000 nM; for `COC(=O)CNC(=O)c1nc(-c2cccc(C(=O)NCc3ccccc3)c2)cnc1N` [Example 576, methyl N-{[3-amino-6-(3-{[(phenylmethyl)amino]carbonyl}phenyl)pyrazin-2-yl]carbonyl}glycinate] it is 1000 to 10000 nM.
The result for `Nc1ncc(-c2cccc(C(=O)NCc3ccccc3)c2)nc1C(=O)NCC(=O)O` [Example 577, N-{[3-amino-6-(3-{[(phenylmethyl)amino]carbonyl}phenyl)pyrazin-2-yl]carbonyl}glycine] reads no less than 10000 nM.
For `Nc1ncc(-c2cccc(C(=O)NCc3ccccc3)c2)nc1C(=O)c1cc(F)cc(F)c1` [Example 578, 3-{5-amino-6-[(3,5-difluorophenyl)carbonyl]pyrazin-2-yl}-N-(phenylmethyl)benzamide], the IC50 was no less than 10000 nM.

The record behind these values is patent publication US7704995B2 (Exelixis, Inc., priority 2003, dated 2010).
